Data: ChEMBL document CHEMBL4257562, “Pseudomonas aeruginosa Quorum Sensing Systems as Drug Discovery Targets: Current Position and Future Perspectives” (J Med Chem, 2018)

Assays:
[1] = molecular target: T1, HTH-type quorum-sensing regulator RhlR (Pseudomonas aeruginosa (strain ATCC 15692 / PAO1 / 1C / PRS 101 / LMG12228)) (UniProt P54292); assay: Non-competitive inhibition of Pseudomonas aeruginosa RhlR expressed in Escherichia coli; conditions: concentration not given here
T1 sequence (whole entry): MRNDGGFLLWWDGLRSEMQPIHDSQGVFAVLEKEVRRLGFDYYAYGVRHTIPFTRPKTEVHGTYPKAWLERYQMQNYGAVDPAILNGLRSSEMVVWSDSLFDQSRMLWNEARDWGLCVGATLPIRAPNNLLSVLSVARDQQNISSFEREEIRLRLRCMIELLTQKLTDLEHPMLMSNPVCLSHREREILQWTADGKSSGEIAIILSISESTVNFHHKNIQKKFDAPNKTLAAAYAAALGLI

[2] = molecular target: T2, Transcriptional activator protein LasR (Pseudomonas aeruginosa (strain ATCC 15692 / PAO1 / 1C / PRS 101 / LMG12228)) (UniProt P25084); assay: Non-competitive inhibition of Pseudomonas aeruginosa LasR expressed in Escherichia coli; conditions: concentration not given here
T2 sequence (whole entry): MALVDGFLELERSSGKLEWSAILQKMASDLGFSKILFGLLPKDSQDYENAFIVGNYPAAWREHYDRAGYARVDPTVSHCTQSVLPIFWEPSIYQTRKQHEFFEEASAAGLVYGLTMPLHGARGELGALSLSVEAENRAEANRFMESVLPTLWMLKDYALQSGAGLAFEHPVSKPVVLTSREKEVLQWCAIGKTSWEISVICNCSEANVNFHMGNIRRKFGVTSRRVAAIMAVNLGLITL

[3] = Inhibition of Pseudomonas aeruginosa PA14 PqsBC catalytic activity using 2-ABA/octanoyl-CoA as substrate after 5 mins
[4] = molecular target: T3, Transcriptional activator protein LasR (Pseudomonas aeruginosa (strain ATCC 15692 / PAO1 / 1C / PRS 101 / LMG12228), UniProt P25084); assay: Antagonist activity at Pseudomonas aeruginosa MW1 LasR assessed as inhibition of protein interaction with OdDHL by beta-galactosidase reporter gene assay
T3 sequence (P25084 whole entry): T2 sequence (whole entry)

[5] = molecular target: T3, Transcriptional activator protein LasR; assay: Inhibition of LasR in Pseudomonas aeruginosa reporter strain harboring gfp-lasB
[6] = test system: Pseudomonas aeruginosa; assay: Inhibition of Pseudomonas aeruginosa quorum sensing system assessed as decrease in C4-HSL production at 6 mM relative to control
[7] = test system: Pseudomonas aeruginosa; assay: Inhibition of Pseudomonas aeruginosa quorum sensing system assessed as decrease in 3OC12-HSL production at 6 mM relative to control
[8] = molecular target: T2, Transcriptional activator protein LasR (Pseudomonas aeruginosa (strain ATCC 15692 / PAO1 / 1C / PRS 101 / LMG12228)); assay: Antagonist activity at Pseudomonas aeruginosa LasR expressed in Pseudomonas putida F117 assessed as inhibition of 3-oxo-C12-HSL-induced protein activation at 20 uM after 4 hrs by fluorescence assay relative to control
[9] = test system: Pseudomonas aeruginosa; assay: Antibiofilm activity against Pseudomonas aeruginosa PA14 at 100 uM; format: functional
[10] = molecular target: T4, 2-heptyl-4(1H)-quinolone synthase PqsD (Pseudomonas aeruginosa, UniProt A0A0C7ACN7); assay: Inhibition of Pseudomonas aeruginosa PqsD
T4 sequence (A0A0C7ACN7 whole entry): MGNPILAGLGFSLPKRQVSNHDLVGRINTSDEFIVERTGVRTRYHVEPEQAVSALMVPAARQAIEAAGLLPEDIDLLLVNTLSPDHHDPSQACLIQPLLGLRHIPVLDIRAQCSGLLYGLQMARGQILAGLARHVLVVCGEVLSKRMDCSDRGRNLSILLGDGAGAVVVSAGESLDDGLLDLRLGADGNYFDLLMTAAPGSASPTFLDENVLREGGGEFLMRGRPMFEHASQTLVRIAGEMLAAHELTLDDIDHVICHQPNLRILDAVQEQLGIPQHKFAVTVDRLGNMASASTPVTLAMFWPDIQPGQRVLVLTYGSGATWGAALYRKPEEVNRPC

[11] = Inhibition of Pseudomonas aeruginosa PqsR
[12] = molecular target: T4, 2-heptyl-4(1H)-quinolone synthase PqsD; assay: Antagonist activity at Pseudomonas aeruginosa PqsD
[13] = Antagonist activity at Pseudomonas aeruginosa PqsR
[14] = molecular target: T3, Transcriptional activator protein LasR; assay: Antagonist activity at Pseudomonas aeruginosa LasR expressed in Escherichia coli DH5alpha assessed as inhibition of protein interaction with OdDHL after 1.5 hrs by beta-galactosidase reporter gene assay
[15] = Antagonist activity at Escherichia coli His6/Sumo-tagged PqsR by beta-galactosidase reporter gene assay
[16] = Antagonist activity at Pseudomonas aeruginosa His6/Sumo-tagged PqsR by beta-galactosidase reporter gene assay
[17] = molecular target: T3, Transcriptional activator protein LasR; assay: Inhibition of LasR in Pseudomonas aeruginosa harboring GFP-fused quorum sensing lasB measured every 15 mins up to 12 hrs by GFP reporter gene assay
[18] = molecular target: T3, Transcriptional activator protein LasR; assay: Antagonist activity at Pseudomonas aeruginosa LasR expressed in Escherichia coli DH5alpha assessed as inhibition of […]-induced receptor activation after 4 hrs by Miller-type beta-galactosidase reporter gene assay
[19] = molecular target: T5, HTH-type quorum-sensing regulator RhlR (Pseudomonas aeruginosa (strain ATCC 15692 / PAO1 / 1C / PRS 101 / LMG12228), UniProt P54292); assay: Inhibition of Pseudomonas aeruginosa GFP-fused RhlR expressed in Escherichia coli BL21-Gold (DE3) co-expressing rhlA promoter by beta-galactosidase reporter gene assay
T5 sequence (P54292 whole entry): T1 sequence (whole entry)

[20] = test system: Pseudomonas aeruginosa; assay: In vivo inhibition of Pseudomonas aeruginosa PA14 PqsR in immunocompetent acute mouse thigh infection model assessed as decrease in PQS levels in plasma at 200 mg/kg, po administered at 2, 10, 18 and 26 hrs post infection measured at 12 hrs relative to control; format: functional
[21] = molecular target: T3, Transcriptional activator protein LasR; assay: Antagonist activity at GFP-fused LasR in Pseudomonas aeruginosa PAO-JP2 co-expressing LVAgfp plasmid by fluorescence assay
[22] = molecular target: T3, Transcriptional activator protein LasR; assay: Antagonist activity at LasR in Pseudomonas aeruginosa reporter strain
[23] = molecular target: T2, Transcriptional activator protein LasR (Pseudomonas aeruginosa (strain ATCC 15692 / PAO1 / 1C / PRS 101 / LMG12228)); assay: Inhibition of OC12-HSL-dependent LasR activation in Pseudomonas aeruginosa MH602 harboring GFP-fused quorum sensing lasB at 250 uM measured every 30 mins up to 15 hrs by GFP reporter gene assay
[24] = molecular target: T1, HTH-type quorum-sensing regulator RhlR (Pseudomonas aeruginosa (strain ATCC 15692 / PAO1 / 1C / PRS 101 / LMG12228)); conditions: 2.27 mM
Description: Antagonist activity at Pseudomonas aeruginosa PAO1 GFP-fused RhlR expressed in Escherichia coli DH5alpha co-expressing rhlA promoter assessed as inhibition of L-arabinose-induced C4-HSL production at 2.27 mM after 5 hrs relative to control

[25] = molecular target: T4, 2-heptyl-4(1H)-quinolone synthase PqsD; assay: Inhibition of recombinant Pseudomonas aeruginosa PqsD expressed in Escherichia coli using anthraniloyl-CoA as substrate assessed as decrease in HHQ production
[26] = molecular target: T4, 2-heptyl-4(1H)-quinolone synthase PqsD; assay: Binding affinity to recombinant Pseudomonas aeruginosa PqsD at 298 K by ITC assay
[27] = test system: Escherichia coli; assay: Antagonist activity at Escherichia coli LasR at 6 uM by luciferase reporter gene assay
[28] = Antagonist activity at Escherichia coli DH5alpha PqsR by beta-galactosidase reporter gene assay
[29] = Antagonist activity at Escherichia coli LasR assessed as inhibition of protein interaction with OdDHL by beta-galactosidase reporter gene assay
[30] = molecular target: T3, Transcriptional activator protein LasR; assay: Antagonist activity at LasR in Pseudomonas aeruginosa PAO1 harboring GFP-fused quorum sensing lasB measured every 15 mins for 14 hrs by GFP reporter gene assay
[31] = test system: Pseudomonas aeruginosa; assay: Inhibition of Pseudomonas aeruginosa PQS signaling at 138 uM relative to control
[32] = Inhibition of Pseudomonas aeruginosa PqsBC assessed as decrease in conversion of 2-ABA/octanoyl-CoA to HHQ measured every 60 secs
[33] = molecular target: T6, Acyl-homoserine-lactone synthase (Pseudomonas aeruginosa (strain ATCC 15692 / PAO1 / 1C / PRS 101 / LMG12228)) (UniProt P33883); assay: Inhibition of Pseudomonas aeruginosa PAO1 LasI after 10 mins by beta-galactosidase reporter gene assay
T6 sequence (whole entry): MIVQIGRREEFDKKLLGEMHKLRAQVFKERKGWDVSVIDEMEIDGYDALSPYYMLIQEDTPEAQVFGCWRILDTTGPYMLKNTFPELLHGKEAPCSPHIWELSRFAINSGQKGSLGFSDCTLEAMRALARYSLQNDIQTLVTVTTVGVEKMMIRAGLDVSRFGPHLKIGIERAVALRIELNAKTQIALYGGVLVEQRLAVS

Compound: O=c1cc(-c2ccccc2)oc2c(O)c(O)ccc12
- inhibition [1]: > 70%
- inhibition [2]: > 70%

Compound: Cc1ccc2nc(SCC(=O)Nc3ccc(Br)cc3)[nH]c2c1
- IC50 [3]: 12.5 µM

Compound: CCCCCCCCNC(=O)CC(=O)c1ccccc1
- IC50 [4]: 10 µM

Compound: C=CCSS/C=C/C[S+]([O-])CC=C (configuration not stated) [AJOENE]
- IC50 [5]: 15 µM

Compound: CN(C)CCc1ccc(O)cc1
- inhibition [6]: 70%
- inhibition [7]: 30%

Compound: NC(=O)SCNc1cccc(Cl)c1
- inhibition [8]: 50 to 60%

Compound: CCCCCCS(=O)(=O)c1ncc(-n2ccnn2)cn1
- Activity [9]: 60%
- IC50 [10]: 1.7 µM

Compound: CS(=O)(=O)c1ncc(-n2cnnn2)cn1
- IC50 [11]: 15 µM
- IC50 [10]: 21 µM

Compound: CCN(CC)S(=O)(=O)c1cc(C(=O)Nc2ccccc2C(=O)O)ccc1Br
- IC50 [12]: 65 µM

Compound: CS(=O)(=O)c1ncc(-n2cc(C(O)C3CCCC3)nn2)cn1 (configuration not stated)
- IC50 [13]: 26 µM

Compound: O=C(CCc1ccc(Br)cc1)N[C@H]1CCOC1=O
- IC50 [14]: 0.25 µM

Compound: O=C(Nc1ccccc1C(=O)O)c1ccc(-c2ccccc2)c(Oc2ccccc2)c1
- IC50 [12]: 35 µM

Compound: CC(C)(C)c1ccc(C(=O)NO)cc1
- IC50 [15]: 12.5 µM
- IC50 [16]: 23.6 µM

Compound: Nc1ccc(S(=O)(=O)Nc2nccs2)cc1 [SULFATHIAZOLE]
- IC50 [17]: 9 µM

Compound: O=C(CCCCCCCCCN=C=S)CC(=O)N[C@H]1CCOC1=O
- IC50 [18]: 134 µM

Compound: NC(=O)SCNc1ccccc1O
- inhibition [8]: 50 to 60%

Compound: O=C(Cc1cccc(I)c1)N[C@H]1CCOC1=O
- IC50 [14]: 1.72 µM

Compound: O=C(CCCCOc1cccc(Br)c1)NC1CCSC1=O (configuration not stated)
- IC50 [19]: 8 µM

Compound: NC(=O)c1cc2cc(Cl)ccc2cc1OCC(=O)c1c[nH]c2cc(C3CC3)ccc12
- inhibition in vivo at 200 mg/kg [20]: 50%

Compound: CCCCCCCOc1ccc(C(=O)N[C@H]2CCOC2=O)cc1
- IC50 [14]: 1 µM

Compound: O=C(Cc1ccc(Br)cc1)N[C@H]1CCOC1=O
- IC50 [21]: 14.8 µM

Compound: O=C(CCCC1CCCCC1)N[C@H]1CCOC1=O
- IC50 [14]: 10 µM

Compound: O=C(N[C@H]1CCOC1=O)c1ccc(-n2cc(CSc3ccccc3)nn2)cc1
- IC50 [22]: 2.64 µM

Compound: Nc1cccc(-n2cc(CCC(=O)N[C@H]3CCOC3=O)nn2)c1
- IC50 [22]: 4.03 µM

Compound: O=C(CCSc1ccc(Cl)cc1)N[C@H]1CCOC1=O
- IC50 [22]: 5.2 µM

Compound: CCOC(=O)CNC(=O)C(=O)c1ccccc1Nc1ccc([N+](=O)[O-])cc1[N+](=O)[O-]
- inhibition [23]: 48%

Compound: C[S+]([O-])CCCCN=C=S (configuration not stated)
- inhibition [24]: 42.1%

Compound: O=[N+]([O-])c1ccccc1C(O)c1ccccc1 (configuration not stated)
- IC50 [25]: 3.2 µM
- Kd [26]: 13 µM

Compound: CCCCCCCSCC(=O)N[C@H]1CCOC1=O
- inhibition [27]: 50%

Compound: O=C(CCCc1c[nH]c2ccccc12)N[C@H]1CCOC1=O
- IC50 [21]: 16.1 µM

Compound: CCCCCCCc1cc(=O)c2cc(C(F)(F)F)ccc2[nH]1
- IC50 [28]: 0.054 µM

Compound: O=C(NCCc1ccc(Br)cc1)c1ccccc1[N+](=O)[O-]
- IC50 [29]: 4.8 µM

Compound: CCCCc1cn(CC(=O)N[C@H]2CCOC2=O)nn1
- IC50 [22]: 3.27 µM

Compound: Nc1nc2nn[nH]c2c(=O)[nH]1 [8-AZAGUANINE]
- IC50 [30]: 0.64 µM

Compound: CCCCCCCc1cc(=O)c2cc([N+](=O)[O-])ccc2[nH]1
- IC50 [28]: 0.051 µM

Compound: CCCCCCCC(=O)N[C@H]1CCOC1=O
- IC50 [14]: 0.34 µM

Compound: NCCCCCCCCCCCCNc1ccnc2cc(Cl)ccc12
- inhibition [31]: 81%

Compound: CC(=O)c1ccccc1N [2-AMINOACETOPHENONE]
- EC50 [32]: 46 µM

Compound: O=C(CSc1nc2ccc([N+](=O)[O-])cc2[nH]1)Nc1ccc(I)cc1
- IC50 [3]: 13.4 µM

Compound: CCCCCC(=O)Nc1c(-c2ccccc2)[nH]c2ccccc12
- inhibition [23]: 65%

Compound: CCCCCCC/C=C1\SC(=O)NC1=O
- inhibition [33]: 40%
